# According to patent US20160324916A1, “PROCESS FOR THE SYNCHRONIZATION OF OVULATION FOR TIMED BREEDING WITHOUT HEAT DETECTION” (priority 2003, published 2016):
# Columns and labels:
# [1] = tested on: mature postpartum sows; experiment: Intravulvar injection at estrus detection in mature postpartum sows, AI breeding (Example 2); format: in vivo, swine; settings: 50 mcg intravulvar at estrus detection
# Description: Sows were assigned randomly in blocks of two to either control or to be injected intravulvar with 50 mcg of deslorelin in SAIB at the time of estrus detection for sows first detected in estrus in the a.m. and 12 hours later for those first detected in estrus in the p.m. Treated animals were bred AI upon detected estrus and again 24 hours later if still in estrus. Controls received a saline injection on first detected estrus behavior estrus detection and were bred according to the farm's normal procedures.
# [2] = tested on: postpartum sows; experiment: Single timed injection 96 hours post-weaning and single timed insemination without estrus detection in postpartum sows (Example 3); format: in vivo, swine; settings: 50 mcg in SAIB 96 hours post-weaning, single timed insemination, no estrus detection
# Description: Approximately 170 postpartum sows were randomly divided into two equal groups comprised of controls and treated. Following weaning, the controls were detected for estrus and bred following the normal standard operating procedures for the farms on which they resided. The treated sows received a 50 mcg dose of deslorelin in SAIB at 96 hours post-weaning and were bred with a single insemination 28+/−2 hours later with no regard to estrus detection. The sows were examined for pregnancy by ultrasound at 21 days and slaughtered around 28 days post breeding. The entire reproductive tract was removed and corpora lutea and embryos were counted.
compound,measurement,setting,value
"CCNC(=O)[C@@H]1CCCN1C(=O)[C@H](CCCN=C(N)N)NC(=O)[C@H](CC(C)C)NC(=O)[C@@H](Cc1c[nH]c2ccccc12)NC(=O)[C@H](Cc1ccc(O)cc1)NC(=O)[C@H](CO)NC(=O)[C@H](Cc1c[nH]c2ccccc12)NC(=O)[C@H](Cc1cnc[nH]1)NC(=O)[C@@H]1CCC(=O)N1 [Deslorelin, deslorelin]","Pregnancy rates, Control versus Treated",[1],no significant difference
same,Pregnancy Rate,[2],71%
